Measurements from US7745390B2, “Antimicrobial peptides” (priority 2005, dated 2010).
Square brackets hold non-standard residues; d marks the D form. Ends that are not written are not given here. Peptide text beside a SMILES is read from it.

Legend:
B. cereus = format: cell-based; conditions: pH 7.2
Description: (§1) The experiments described above characterizing the activity of granulysin peptides G1-G18 relied on counting bacterial colonies on plates. This assay is quite labor intensive and would not allow evaluation of many different compounds on a number of different microbes. Therefore, we optimized an assay in which the entire procedure could be completed in a single microtiter well. Briefly, peptides are diluted in 10 mM phosphate buffer, pH 7.2 supplemented with 0.03% LB (J. Sambrook, D. W. Russell, Molecular Cloning: A Laboratory Manual (Cold Spring Harbor Laboratory Press, New York, ed. 3, 2001) pg. A2.2, Retrieved from http://openwetware.org/wiki/LB) and 25 μl is added to microtiter wells. Bacteria (25 μl) are added (˜5×10^6 colony forming units/ml) in the same buffer. After a 3-hour incubation at 37° C., 150 μl of LB is added and the plates are incubated overnight. The OD at 600 nm is read on an ELISA plate reader. The minimum inhibitory concentration (MIC) is the lowest concentration allowing no bacterial growth. The IC50 is the concentration of peptide that results in 50% growth compared to the medium.
(§2) We now describe additional peptides and their activity. The peptides have been designed, synthesized, and have been tested for lysis of E. coli and S. typhimurium (gram negative bacteria), B. cereus (gram positive bacterium). Results are shown in Table 2 along with the amino acid sequence of the peptide. Changes from the naturally occurring sequence are underlined. In general, the desired result is lysis of bacteria at low concentration (<1 μM).
(§3) In Table 2, Columns 2-7 are the MIC and IC50 (concentration required for 50% inhibition of growth) for each organism (E. coli, Salmonella, and B. cereus). The MIC (minimum inhibitory concentration) was determined as described above, in a multiwell plate assay. […] L-isomer amino acids are designated by capital letters while D-isomer amino acids are designated by lower case letters.

E. coli DH5a = format: cell-based; conditions: DH5a, pH 7.2
Description: as §1, §2, §3

Salmonella = format: cell-based, S. typhimurium; conditions: pH 7.2
Description: as §1, §2, §3

Row | Compound | B. cereus MIC (B. cereus) | IC50 (B. cereus) | E. coli DH5a MIC (E. coli DH5a) | IC50 (E. coli DH5a) | IC50 (Salmonella) | Salmonella MIC (Salmonella)
1 | QRSVSRAATRVCRTGRSNW [Peptide G13.10, QRSVSRAATRVCRTGRSNW] | 5.6 µM | 3.5 µM | 0.71 µM | 0.25 µM | > 10 µM | >10 µM
2 | GRARWRDVARRFMRR [Peptide G14.9, GRARWRDVARRFMRR] | 1.37 µM | 0.85 µM | 1.38 µM | 0.81 µM | 0.44 µM | 0.65 µM
3 | CC[C@H](C)[C@H](NC(=O)[C@@H](NC(=O)[C@@H](CCCNC(=N)N)NC(=O)[C@H](CO)NC(=O)[C@H](CCC(N)=O)NC(=O)[C@@H](CCCNC(=N)N)NC(=O)[C@@H](CCCNC(=N)N)NC(=O)[C@H](CCSC)NC(=O)[C@H](Cc1ccccc1)NC(=O)[C@@H](CCCNC(=N)N)NC(=O)[C@H](CCCNC(=N)N)NC(=O)[C@H](C)NC(=O)[C@H](NC(=O)[C@H](CC(=O)O)NC(=O)[C@@H](N)CCCNC(=N)N)C(C)C)C(C)C)C(=O)N[C@@H](CO)C(=O)N[C@H](CCCNC(=N)N)C(=O)N[C@@H](CC(C)C)C(=O)N[C@H](C(=O)O)C(C)C [Peptide G12.16, RDvARrFMrrQSrVISrLV] (H-RD[dV]AR[dR]FM[dR][dR]QS[dR]VIS[dR]LV-OH; N-terminus and C-terminus assumed) | 5.6 µM | 3.51 µM | 1.39 µM | 0.72 µM | 1 µM | 2.8 µM
4 | KKVSKKFMKKYQSKVIQGLV [Peptide G12.9] | 5.6 µM | 3.51 µM | 1.35 µM | 0.49 µM | 0.85 µM | 1.4 µM
5 | GRSRWRDVSRNFMRR [Peptide G14.1, GRSRWRDVSRNFMRR] | >10 µM | 7.66 µM | 1.37 µM | 0.89 µM | 1.75 µM | 2.8 µM
6 | SDVAKKFMKKQSKVIKKLV [Peptide G12.23, SDVAKKFMKKQSKVIKKLV] | >10 µM | 7.7 µM | 3 µM | 1 µM | > 10 µM | >10 µM
7 | QRAVANAATRVARTGRARWRDVARRFMRR [Peptide G8.6] | 1.5 µM | 0.89 µM | 0.7 µM | 0.45 µM | 0.43 µM | 0.7 µM
8 | GSRRWRDVSRRFMRR [Peptide G14.14, GSRRWRDVSRRFMRR] | 0.35 µM | 0.21 µM | 0.17 µM | 0.11 µM | 0.21 µM | 0.7 µM
9 | RRVSRRFMRRSRWARKGSGQMVQQSSQQFQ [Peptide G11.41] | 1.38 µM | 0.89 µM | 3.5 µM | 0.96 µM | 3.25 µM | 5.6 µM
10 | RRVSRRFMRR [Peptide G11.44, RRVSRRFMRR] | >10 µM | 7.7 µM | 0.38 µM | 0.21 µM | 3.15 µM | 5.75 µM
11 | CC[C@@H](C)[C@@H](NC(=O)[C@@H](NC(=O)[C@H](CCCNC(=N)N)NC(=O)[C@@H](CO)NC(=O)[C@H](CCC(N)=O)NC(=O)[C@@H](CCCNC(=N)N)NC(=O)[C@@H](CCCNC(=N)N)NC(=O)[C@H](CCSC)NC(=O)[C@H](Cc1ccccc1)NC(=O)[C@H](CCCNC(=N)N)NC(=O)[C@H](CCCNC(=N)N)NC(=O)[C@@H](C)NC(=O)[C@@H](NC(=O)[C@H](CC(=O)O)NC(=O)[C@@H](N)CCCNC(=N)N)C(C)C)C(C)C)C(=O)N[C@@H](CO)C(=O)N[C@@H](CCCNC(=N)N)C(=O)N[C@@H](CC(C)C)C(=O)N[C@H](C(=O)O)C(C)C [Peptide G12.18, RDVaRRFMrrQsRViSRLV] (H-RDV[dA]RRFM[dR][dR]Q[dS]RV[dI]SRLV-OH; N-terminus and C-terminus assumed) | 5.6 µM | 3.51 µM | 2.9 µM | 1 µM | 1.61 µM | 2.8 µM
12 | RRVSRRFMRRYRSRRIRRLV [Peptide G12.8] | 0.71 µM | 0.45 µM | 0.7 µM | 0.45 µM | 0.41 µM | 0.65 µM
13 | GRSGWRDVSRNFRRG [Peptide G14.12, GRSGWRDVSRNFRRG] | >10 µM | > 10 µM | >10 µM | 6.75 µM | > 10 µM | >10 µM
14 | CSCC[C@H](NC(=O)[C@H](Cc1ccccc1)NC(=O)[C@@H](CCCNC(=N)N)NC(=O)[C@@H](CCCNC(=N)N)NC(=O)[C@H](CO)NC(=O)[C@@H](NC(=O)[C@@H](CCCNC(=N)N)NC(=O)[C@@H](CCCNC(=N)N)NC(=O)[C@@H](CCCNC(=N)N)NC(=O)[C@@H](CCCNC(=N)N)NC(=O)[C@@H](CCCNC(=N)N)NC(=O)[C@@H](CCCNC(=N)N)NC(=O)[C@@H](CCCNC(=N)N)NC(=O)[C@H](CCC(N)=O)NC(=O)[C@H](CC(C)C)NC(=O)[C@H](CCCCN)NC(=O)[C@H](CO)NC(=O)[C@H](CO)NC(=O)[C@H](Cc1c[nH]cn1)NC(=O)[C@H](CC(=O)O)NC(=O)CNC(=O)CNC(=O)[C@H](CC(=O)O)NC(=O)CNC(=O)CNC(=O)[C@@H](N)CC(=O)O)C(C)C)C(=O)N[C@H](CCCNC(=N)N)C(=O)N[C@H](CCCNC(=N)N)C(=O)O [Peptide G11.47, DGGDGGDHSSKLQrrrrrrrVSrrFMrr] (H-DGGDGGDHSSKLQ[dR][dR][dR][dR][dR][dR][dR]VS[dR][dR]FM[dR][dR]-OH; N-terminus and C-terminus assumed) | 0.32 µM | 0.1 µM | 0.18 µM | 0.1 µM | 0.15 µM | 0.45 µM
15 | RRDSRRFMRR [Peptide G11.11, RRDSRRFMRR] | >10 µM | > 10 µM | >10 µM | 7.45 µM | > 10 µM | >10 µM
16 | CSCC[C@@H](NC(=O)[C@H]1CCCN1C(=O)[C@@H](CCCCN)NC(=O)[C@@H](CCCCN)NC(=O)[C@@H](CO)NC(=O)[C@H](NC(=O)[C@@H](CCCCN)NC(=O)[C@@H](CCCCN)NC(=O)[C@@H](CCCCN)NC(=O)[C@@H](CCCCN)NC(=O)[C@@H](CCCCN)NC(=O)[C@@H](CCCCN)NC(=O)[C@H](N)CCCCN)C(C)C)C(=O)N[C@H](CCCCN)C(=O)N[C@H](CCCCN)C(=O)N[C@H](Cc1ccc(O)cc1)C(=O)N[C@H](CCCCN)C(=O)N[C@H](CO)C(=O)N[C@H](CCCCN)C(=O)N[C@H](CCCCN)C(=O)N1CCC[C@@H]1C(=O)N[C@H](CCCCN)C(=O)N[C@H](CCCCN)C(=O)N[C@H](CC(C)C)C(=O)N[C@@H](C(=O)O)C(C)C [Peptide G12.29, kkkkkkkvskkpmkkykskkpkklv] (H-[dK][dK][dK][dK][dK][dK][dK][dV][dS][dK][dK][dP][dM][dK][dK][dY][dK][dS][dK][dK][dP][dK][dK][dL][dV]-OH; N-terminus and C-terminus assumed) | 0.35 µM | 0.21 µM | 0.15 µM | 0.1 µM | 0.28 µM | 1.15 µM
17 | CC[C@H](C)[C@H](NC(=O)[C@H](NC(=O)[C@H](CCCNC(=N)N)NC(=O)[C@H](CO)NC(=O)[C@H](CCC(N)=O)NC(=O)[C@@H](CCCNC(=N)N)NC(=O)[C@@H](CCCNC(=N)N)NC(=O)[C@H](CCSC)NC(=O)[C@H](Cc1ccccc1)NC(=O)[C@@H](CCCNC(=N)N)NC(=O)[C@H](CCCNC(=N)N)NC(=O)[C@@H](C)NC(=O)[C@@H](NC(=O)[C@H](CC(=O)O)NC(=O)[C@@H](N)CCCNC(=N)N)C(C)C)C(C)C)C(=O)N[C@@H](CO)C(=O)N[C@@H](CCCNC(=N)N)C(=O)N[C@H](CC(C)C)C(=O)N[C@H](C(=O)O)C(C)C [Peptide G12.17, RDVaRrFMrrQSRvISRlV] (H-RDV[dA]R[dR]FM[dR][dR]QSR[dV]ISR[dL]V-OH; N-terminus and C-terminus assumed) | 2.8 µM | 1.75 µM | 3.3 µM | 0.89 µM | 1.6 µM | 2.8 µM
18 | RRVSRRFMRRSGSGSGSGQQMVQQSGQQFS [Peptide G11.40] | >10 µM | > 10 µM | >10 µM | 3.28 µM | > 10 µM | >10 µM
